The source of these data is US20250092017A1, “2-PIPERIDYL OR 2-PYRAZOLYL SUBSTITUTED PYRIMIDINE COMPOUND SERVING AS EGFR INHIBITOR” (SUZHOU PUHE BIOPHARMA CO., LTD., priority 2022, published 2025).

What all share (type): biochemical
One experiment addresses EGFR (L858R) (Homo sapiens, UniProt P00533, L858R). The experiment can be described thus: MSA (Mobility Shift Assay) kinase activity, EGFR-L858R. As for the experimental part:
(§1) The MSA (Mobility Shift Assay) method was used to detect the effects of small molecule inhibitors on the kinase activity of EGFR wild type and its mutants (EGFR^wt, EGFR-L858R, EGFR-L858R-T790M-C797S, EGFR-L858R-C797S).
(§2) 10 μL of kinase solution at 2.5 times the final concentration was added to the compound wells and positive control Max wells; 10 μL of 1x kinase buffer was added to the negative control Min wells. The mixture was centrifuged at 1000 rpm for 30 seconds, and the reaction plate was shaken to mix the solution well and then incubated at room temperature for 10 minutes. A mixed solution of ATP and kinase substrate at 5/3 times the final concentration was prepared in 1x kinase buffer. 15 μL of a mixed solution of ATP and substrate at 5/3 times the final concentration was added to initiate the reaction. The 384-well plate was centrifuged at 1000 rpm for 30 seconds, and shaken to mix the solution well and then incubated at room temperature for the corresponding time. 30 μL of stop detection solution was added to stop the kinase reaction, and the mixture was centrifuged at 1000 rpm for 30 seconds, and then to mixed well by shaking. The conversion rate was read using Caliper EZ Reader.
(§3) wherein: Conversion %_sample is the conversion rate reading of the sample; Conversion %_min is the mean of the negative control wells, representing the conversion rate reading of the wells without enzyme activity; Conversion %_max is the mean of the positive control wells, representing the conversion rate reading of the wells without compound inhibition.
(§4) The log (inhibitor) vs. response —Variable slope of the analysis software GraphPad Prism 5 was used to fit the dose-effect curve, where the log value of the concentration was used as the X-axis and the percentage inhibition rate was used as the Y-axis, to obtain the IC50 value of each compound on the enzyme activity.
(§5) The calculation formula is Y=Bottom+(Top-Bottom)/(1+10^((Log IC50−X)*Hill Slope))

The next experiment concerns the target EGFR (wild-type) (Homo sapiens, UniProt P00533). The experiment can be described thus: MSA (Mobility Shift Assay) kinase activity, EGFR wild type. As to conditions: read-out: EGFR wt/ IC50/nM. As for the experimental part: as §1, §2, §3, §4, §5
In the next experiment the target is EGFR (L858R/C797S) (Homo sapiens, UniProt P00533, C797S/L858R). The experiment can be described thus: MSA (Mobility Shift Assay) kinase activity, EGFR-L858R-C797S. As for the experimental part:
as §1, §2, §3, §4, §5

The target of another experiment is EGFR (L858R/T790M/C797S) (Homo sapiens, UniProt P00533, C797S/L858R/T790M). Briefly: MSA (Mobility Shift Assay) kinase activity, EGFR-L858R-T790M-C797S. Here is the method: as §1, §2, §3, §4, §5
EGFR (L858R/T790M/C797S), sequence (P00533 25-1210 T790M/C797S/L858R): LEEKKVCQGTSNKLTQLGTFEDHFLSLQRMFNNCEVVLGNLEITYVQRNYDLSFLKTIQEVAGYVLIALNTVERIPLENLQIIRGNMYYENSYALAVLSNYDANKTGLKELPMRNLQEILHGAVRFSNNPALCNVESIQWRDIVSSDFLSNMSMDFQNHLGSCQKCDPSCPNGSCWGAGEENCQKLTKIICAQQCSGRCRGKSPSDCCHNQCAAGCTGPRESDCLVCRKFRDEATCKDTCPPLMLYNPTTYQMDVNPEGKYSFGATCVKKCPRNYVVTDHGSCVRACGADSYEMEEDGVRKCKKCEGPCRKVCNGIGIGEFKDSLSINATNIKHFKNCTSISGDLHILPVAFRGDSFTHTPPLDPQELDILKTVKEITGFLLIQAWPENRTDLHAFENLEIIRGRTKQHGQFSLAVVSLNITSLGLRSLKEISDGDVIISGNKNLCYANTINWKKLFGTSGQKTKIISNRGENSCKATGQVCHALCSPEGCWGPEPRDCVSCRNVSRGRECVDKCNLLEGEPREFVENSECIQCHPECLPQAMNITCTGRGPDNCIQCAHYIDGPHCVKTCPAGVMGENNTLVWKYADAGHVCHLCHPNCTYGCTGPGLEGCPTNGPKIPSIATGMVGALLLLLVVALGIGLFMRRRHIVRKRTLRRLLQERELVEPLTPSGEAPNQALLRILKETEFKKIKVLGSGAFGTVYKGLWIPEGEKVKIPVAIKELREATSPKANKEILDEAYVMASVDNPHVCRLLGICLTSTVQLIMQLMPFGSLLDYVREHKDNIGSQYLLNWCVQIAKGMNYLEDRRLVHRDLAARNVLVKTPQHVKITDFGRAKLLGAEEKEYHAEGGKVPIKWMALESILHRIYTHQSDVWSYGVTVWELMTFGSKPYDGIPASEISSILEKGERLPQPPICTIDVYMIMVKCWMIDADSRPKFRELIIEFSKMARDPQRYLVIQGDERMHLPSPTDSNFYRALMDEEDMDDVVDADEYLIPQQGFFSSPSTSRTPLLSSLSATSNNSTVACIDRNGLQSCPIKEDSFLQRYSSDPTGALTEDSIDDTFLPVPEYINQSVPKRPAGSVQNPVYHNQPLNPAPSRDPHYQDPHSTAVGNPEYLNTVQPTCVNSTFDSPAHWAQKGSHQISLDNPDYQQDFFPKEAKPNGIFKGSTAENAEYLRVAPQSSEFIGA

EGFR (L858R/C797S), sequence (P00533 25-1210 C797S/L858R): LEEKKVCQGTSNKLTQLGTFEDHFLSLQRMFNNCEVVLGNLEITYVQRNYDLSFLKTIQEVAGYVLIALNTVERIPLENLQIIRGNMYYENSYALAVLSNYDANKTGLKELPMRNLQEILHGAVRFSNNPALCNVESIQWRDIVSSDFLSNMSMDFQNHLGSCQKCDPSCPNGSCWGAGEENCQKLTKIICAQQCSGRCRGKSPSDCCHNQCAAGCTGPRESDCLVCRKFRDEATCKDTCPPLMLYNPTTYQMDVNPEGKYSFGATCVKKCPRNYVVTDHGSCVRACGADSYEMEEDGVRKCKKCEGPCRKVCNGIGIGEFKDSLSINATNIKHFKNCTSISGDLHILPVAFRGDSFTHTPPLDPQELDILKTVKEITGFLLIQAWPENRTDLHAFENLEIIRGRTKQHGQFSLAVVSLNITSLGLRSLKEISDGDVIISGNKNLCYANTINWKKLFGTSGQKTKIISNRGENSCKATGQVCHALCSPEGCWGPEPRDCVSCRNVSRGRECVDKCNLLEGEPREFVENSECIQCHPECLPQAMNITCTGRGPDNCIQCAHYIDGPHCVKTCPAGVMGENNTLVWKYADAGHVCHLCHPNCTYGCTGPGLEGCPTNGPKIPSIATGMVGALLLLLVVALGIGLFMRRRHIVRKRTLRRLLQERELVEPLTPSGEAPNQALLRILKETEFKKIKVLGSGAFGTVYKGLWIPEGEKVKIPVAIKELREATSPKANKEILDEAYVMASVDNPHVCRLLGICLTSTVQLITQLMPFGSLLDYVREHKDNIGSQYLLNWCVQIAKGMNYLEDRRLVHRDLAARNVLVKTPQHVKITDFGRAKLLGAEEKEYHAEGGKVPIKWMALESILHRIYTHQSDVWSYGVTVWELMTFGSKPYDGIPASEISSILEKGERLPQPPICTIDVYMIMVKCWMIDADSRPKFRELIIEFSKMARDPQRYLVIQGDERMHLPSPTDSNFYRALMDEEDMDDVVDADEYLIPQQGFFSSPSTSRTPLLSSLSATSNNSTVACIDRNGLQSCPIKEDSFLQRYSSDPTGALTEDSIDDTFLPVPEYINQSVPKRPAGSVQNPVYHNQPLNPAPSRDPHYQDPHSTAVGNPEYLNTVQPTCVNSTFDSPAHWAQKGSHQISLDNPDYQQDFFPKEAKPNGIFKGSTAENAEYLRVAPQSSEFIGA
EGFR (L858R), sequence (P00533 25-1210 L858R): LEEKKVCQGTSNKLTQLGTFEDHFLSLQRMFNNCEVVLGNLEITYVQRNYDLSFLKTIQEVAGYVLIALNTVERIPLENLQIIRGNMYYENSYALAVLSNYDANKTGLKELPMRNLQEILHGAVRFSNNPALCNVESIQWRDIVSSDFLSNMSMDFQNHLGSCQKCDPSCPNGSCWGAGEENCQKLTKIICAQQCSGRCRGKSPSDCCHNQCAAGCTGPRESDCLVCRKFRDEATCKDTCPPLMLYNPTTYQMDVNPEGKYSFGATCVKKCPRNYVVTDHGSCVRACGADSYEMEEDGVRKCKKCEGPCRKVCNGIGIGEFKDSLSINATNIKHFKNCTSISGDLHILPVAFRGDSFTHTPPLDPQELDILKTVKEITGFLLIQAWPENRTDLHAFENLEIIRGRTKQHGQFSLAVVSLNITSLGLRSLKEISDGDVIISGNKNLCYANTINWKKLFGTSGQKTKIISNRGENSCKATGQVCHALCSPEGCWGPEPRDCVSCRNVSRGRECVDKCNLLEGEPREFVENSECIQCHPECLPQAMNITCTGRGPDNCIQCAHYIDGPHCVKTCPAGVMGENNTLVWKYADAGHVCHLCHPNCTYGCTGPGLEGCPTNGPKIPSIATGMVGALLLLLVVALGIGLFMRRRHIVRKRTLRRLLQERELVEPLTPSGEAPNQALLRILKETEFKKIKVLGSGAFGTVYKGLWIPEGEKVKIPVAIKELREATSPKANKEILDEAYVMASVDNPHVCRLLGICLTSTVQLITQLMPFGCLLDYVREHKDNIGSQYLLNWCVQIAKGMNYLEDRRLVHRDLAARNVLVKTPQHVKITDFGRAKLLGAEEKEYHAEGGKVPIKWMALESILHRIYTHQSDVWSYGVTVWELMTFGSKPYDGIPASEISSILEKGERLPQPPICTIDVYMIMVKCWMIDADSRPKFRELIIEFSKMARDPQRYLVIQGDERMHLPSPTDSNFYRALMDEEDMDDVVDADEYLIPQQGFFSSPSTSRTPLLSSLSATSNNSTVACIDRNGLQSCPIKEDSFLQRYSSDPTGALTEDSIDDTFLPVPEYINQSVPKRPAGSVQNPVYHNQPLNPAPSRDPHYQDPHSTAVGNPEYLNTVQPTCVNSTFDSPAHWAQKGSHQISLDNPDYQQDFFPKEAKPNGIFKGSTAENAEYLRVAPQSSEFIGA
EGFR (wild-type), sequence (P00533 25-1210): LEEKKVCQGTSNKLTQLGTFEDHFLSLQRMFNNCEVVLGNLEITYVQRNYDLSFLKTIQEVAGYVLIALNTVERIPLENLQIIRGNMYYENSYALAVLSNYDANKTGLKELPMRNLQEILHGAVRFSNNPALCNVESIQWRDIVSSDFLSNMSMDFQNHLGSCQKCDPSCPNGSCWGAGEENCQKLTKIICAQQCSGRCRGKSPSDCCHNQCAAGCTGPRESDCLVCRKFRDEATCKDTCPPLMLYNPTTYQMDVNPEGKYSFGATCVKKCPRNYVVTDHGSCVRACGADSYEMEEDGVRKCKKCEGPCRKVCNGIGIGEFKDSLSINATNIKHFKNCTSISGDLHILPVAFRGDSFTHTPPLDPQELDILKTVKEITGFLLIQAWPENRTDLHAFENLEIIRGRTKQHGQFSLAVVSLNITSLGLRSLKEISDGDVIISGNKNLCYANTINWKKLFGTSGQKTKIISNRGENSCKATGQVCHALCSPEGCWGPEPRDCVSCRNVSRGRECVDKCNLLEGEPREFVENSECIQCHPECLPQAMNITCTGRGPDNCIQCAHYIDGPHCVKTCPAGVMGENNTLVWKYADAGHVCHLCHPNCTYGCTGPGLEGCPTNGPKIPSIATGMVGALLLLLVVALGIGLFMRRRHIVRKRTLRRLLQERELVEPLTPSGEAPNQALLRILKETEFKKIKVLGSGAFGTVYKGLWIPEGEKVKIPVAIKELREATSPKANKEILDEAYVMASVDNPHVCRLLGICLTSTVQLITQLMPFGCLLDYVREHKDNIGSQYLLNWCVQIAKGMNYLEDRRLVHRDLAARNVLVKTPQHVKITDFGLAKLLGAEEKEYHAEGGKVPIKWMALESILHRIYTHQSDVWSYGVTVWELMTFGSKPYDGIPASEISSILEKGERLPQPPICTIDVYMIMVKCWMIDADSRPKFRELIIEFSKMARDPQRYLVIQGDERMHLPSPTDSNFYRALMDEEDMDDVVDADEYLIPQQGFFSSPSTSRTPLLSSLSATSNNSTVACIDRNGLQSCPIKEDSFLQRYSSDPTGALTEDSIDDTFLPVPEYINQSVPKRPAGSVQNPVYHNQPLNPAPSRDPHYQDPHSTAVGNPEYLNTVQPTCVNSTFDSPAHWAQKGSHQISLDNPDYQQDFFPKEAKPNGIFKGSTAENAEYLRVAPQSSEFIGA

On to `COc1cccc(-c2nccc(Nc3cc4c(C(C)C)ccc(N5CC(CS(C)(=O)=O)C5)c4cn3)n2)n1` [Compound H2], for which the IC50 on EGFR (L858R) is > 100 nM; at EGFR (wild-type) it was > 100 nM; at EGFR (L858R/C797S), > 100 nM; on EGFR (L858R/T790M/C797S), 71.6 nM.
For the molecule `CNC(=O)CN1CC(c2ccc(C(C)C)c3cc(Nc4ccnc(N5CCC(O)C(F)C5)n4)ncc23)C1` (centres unmarked) [Compound P15], the IC50 at EGFR (L858R) is 98.9 nM; on EGFR (wild-type), > 100 nM; on EGFR (L858R/C797S) it was > 100 nM; on EGFR (L858R/T790M/C797S), 1.7 nM.
For `CC(C)n1c(=O)cc(N2CC(CS(C)(=O)=O)C2)c2cnc(Nc3ccnc(N4CCC(O)CC4)n3)cc21` [Compound P13], the IC50 was 31.2 nM at EGFR (L858R), > 100 nM on EGFR (wild-type), 34.5 nM at EGFR (L858R/C797S) and 1 nM at EGFR (L858R/T790M/C797S).
For `CC(C)c1cc(C(F)(F)F)c(N2CC3(CC(CS(C)(=O)=O)C3)C2)c2cnc(Nc3ccnc(N4CCC(O)C(F)C4)n3)cc12` (centres unmarked) [Compound P5] the same measures were > 100 nM, > 100 nM, > 100 nM and 7.1 nM.
On the same counts, the results for `CC(C)n1c(=O)cc(N2CC(CS(C)(=O)=O)C2)c2cnc(Nc3ccnc(N4CCC(O)C(F)C4)n3)cc21` (centres unmarked) [Compound P14] are 9.5 nM, 80.7 nM, 11.8 nM and 0.12 nM.
For `CC(C)c1ccc(N2CC3(CC(S(C)(=O)=O)C3)C2)c2cnc(Nc3ccnc(N4CCC(O)CC4)n3)cc12` [Compound P4] the same measures were 43.3 nM, > 100 nM, > 100 nM and 4.6 nM.
For `CC(C)c1ccc(N2CC3(C2)CN(S(C)(=O)=O)C3)c2cnc(Nc3ccnc(N4CCC(O)C(F)C4)n3)cc12` (centres unmarked) [Compound P11], the IC50 at EGFR (L858R) is > 100 nM; on EGFR (wild-type) it was > 100 nM; on EGFR (L858R/C797S), > 100 nM; at EGFR (L858R/T790M/C797S), 4.8 nM.
Consider `CC(C)c1ccc(N2CC(c3ccc[nH]c3=O)C2)c2cnc(Nc3ccnc(N4CCC(O)C(F)C4)n3)cc12` (centres unmarked) [Compound P22], for which the IC50 was > 100 nM on EGFR (L858R), > 100 nM at EGFR (wild-type), > 100 nM at EGFR (L858R/C797S) and 3.2 nM on EGFR (L858R/T790M/C797S).
Turning to `CNC(=O)CC1CN(c2ccc(C(C)C)c3cc(Nc4ccnc(N5CCC(O)C(F)C5)n4)ncc23)C1` (centres unmarked) [Compound P20], the IC50 was determined as 20.5 nM on EGFR (L858R), 90.9 nM at EGFR (wild-type), 43.1 nM on EGFR (L858R/C797S) and 0.42 nM on EGFR (L858R/T790M/C797S).
On the same counts, the results for `CC(C)c1ccc(N2CC(CP(C)(C)=O)C2)c2cnc(Nc3ccnc(N4CCC(O)C(F)C4)n3)cc12` (centres unmarked) [Compound P9] are > 100 nM, > 100 nM, > 100 nM and 3.4 nM.
For `CC(C)n1c(=O)cc(N2CC(CS(C)(=O)=O)C2)c2cnc(Nc3ccnc(-c4cnn(S(=O)(=O)C5CC5)c4)n3)cc21` [Compound H5] the same measures were 4.6 nM, 10.2 nM, 1.9 nM and 0.43 nM.
On the same counts, the results for `CC(C)c1ccc(N2CC(NS(C)(=O)=O)C2)c2cnc(Nc3ccnc(N4CCC(O)CC4)c3)nc12` [Compound P6] are 45.2 nM, > 100 nM, 89.8 nM and 6.1 nM.
Take `CC(C)c1ccc(N2C[C@@H](NS(C)(=O)=O)[C@@H]2C)c2cnc(Nc3ccnc(N4CCC(O)C(F)C4)n3)cc12` (some centres unmarked) [Compound P26]: the IC50 on EGFR (L858R) was > 100 nM; at EGFR (wild-type), > 100 nM; at EGFR (L858R/C797S) it was > 100 nM; on EGFR (L858R/T790M/C797S), 30.9 nM.
Regarding `CC(C)n1c(=O)nc(N2CC(CS(C)(=O)=O)C2)c2cnc(Nc3ccnc(N4CCC(O)C(F)C4)n3)cc21` (centres unmarked) [Compound P19], the IC50 is > 100 nM at EGFR (L858R), > 100 nM at EGFR (wild-type), > 100 nM on EGFR (L858R/C797S) and 3.4 nM on EGFR (L858R/T790M/C797S).
